Experiment [1] relates to S. pneumoniae D39V. Nature of the experiment: fitness (endpoint OD595 vs no drug) (fraction); higher = more growth. The gist of the method: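 Fitness compares growth at the stationary-phase transition with the robust mean of no-drug control wells, as a ratio of optical densities. The ratio is capped at 1. Wells of 384-well plates held 30 µl, or 55 µl for S. pneumoniae, inoculated at OD595 0.01. Readings at OD595 every 30 min for 14 h at 37 °C were corrected against the first reading.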

In experiment [2] the test system is B. subtilis 168. In words: Bliss interaction score (quartile over a dose matrix) (fitness difference); higher = more antagonism (negative = synergy). Summed up:
(§1)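 Fitness was OD595 at entry into stationary phase divided by the plate's robust no-drug mean and capped at 1; single-drug fitness was inferred from combination data. The Bliss score is observed minus expected (product) fitness, summarised by quartiles over technical, biological and donor/recipient replicates.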

Experiment [3] concerns S. aureus DSM 20231. Described as above. Summed up: as §1
Experiment [4] concerns S. aureus Newman. The description is as above. Summed up:
as §1

Experiment [5] has as its system S. pneumoniae D39V. Described as above. The gist of the method: as §1
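Throughout, for Bliss interaction score (quartile over a dose matrix): first quartile when negative (synergy) and third quartile when positive (antagonism).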

For the compound `CC1(C)S[C@@H]2[C@H](NC(=O)[C@H](N)c3ccc(O)cc3)C(=O)N2[C@H]1C(=O)O` [Amoxicillin] + C[C@@H](O)[C@H]1C(=O)N2C(C(=O)O)=C(SCCNC=N)C[C@H]12 [Imipenem], the fitness worked out at 0.971 in experiment [1] (first compound 0.0008 µg/mL, partner 0.005 µg/mL, one replicate); 0.934 in experiment [1] (first compound 0.0008 µg/mL, partner 0.0065 µg/mL); 0.931 in experiment [1] (first compound 0.0008 µg/mL, partner 0.01 µg/mL, one replicate); 0.908 in experiment [1] (first compound 0.0008 µg/mL, partner 0.013 µg/mL); 0.907 in experiment [1] (first compound 0.0008 µg/mL, partner 0.02 µg/mL, one replicate); 0.875 in experiment [1] (first compound 0.0008 µg/mL, partner 0.026 µg/mL). The fitness in experiment [1] (first compound 0.0015 µg/mL, partner 0.005 µg/mL) was 0.928; in experiment [1] (first compound 0.0015 µg/mL, partner 0.0065 µg/mL), 0.927; in experiment [1] (first compound 0.0015 µg/mL, partner 0.01 µg/mL), 0.934; in experiment [1] (first compound 0.0015 µg/mL, partner 0.013 µg/mL), 0.919; in experiment [1] (first compound 0.0015 µg/mL, partner 0.02 µg/mL), 0.907; in experiment [1] (first compound 0.0015 µg/mL, partner 0.026 µg/mL), 0.859. The fitness in experiment [1] (first compound 0.003 µg/mL, partner 0.005 µg/mL) came to 0.888; in experiment [1] (first compound 0.003 µg/mL, partner 0.0065 µg/mL), 0.842; in experiment [1] (first compound 0.003 µg/mL, partner 0.01 µg/mL), 0.882; in experiment [1] (first compound 0.003 µg/mL, partner 0.013 µg/mL), 0.869; in experiment [1] (first compound 0.003 µg/mL, partner 0.02 µg/mL), 0.866; in experiment [1] (first compound 0.003 µg/mL, partner 0.026 µg/mL) it was 0.796. Besides, the fitness was 0.431 in experiment [1] (first compound 0.006 µg/mL, partner 0.005 µg/mL, one replicate); 0.412 in experiment [1] (first compound 0.006 µg/mL, partner 0.01 µg/mL, one replicate); 0.373 in experiment [1] (first compound 0.006 µg/mL, partner 0.02 µg/mL, one replicate). Besides, the Bliss interaction score in experiment [2] was 0.189; in experiment [3] it was -0.0413; in experiment [4], 0.0343; in experiment [5] it was -0.058.
`C[C@H]1COc2c(N3CCN(C)CC3)c(F)cc3c(=O)c(C(=O)O)cn1c23` [Levofloxacin] + CC[C@H]1OC(=O)[C@H](C)C(=O)[C@H](C)[C@@H](O[C@@H]2O[C@H](C)C[C@H](N(C)C)[C@H]2O)[C@](C)(OC)C[C@@H](C)C(=O)[C@H](C)[C@H]2N(CCCCn3cnc(-c4cccnc4)c3)C(=O)O[C@]12C [Telithromycin]: the Bliss interaction score in experiment [2] was found to be 0.0654; in experiment [3], 0.0361; in experiment [4], 0.0408; in experiment [5] it was 0.0737.
For `C[C@H]1COc2c(N3CCN(C)CC3)c(F)cc3c(=O)c(C(=O)O)cn1c23` [Levofloxacin] + CN[C@H](CC(C)C)C(=O)N[C@H]1C(=O)N[C@@H](CC(N)=O)C(=O)N[C@H]2C(=O)N[C@H]3C(=O)N[C@H](C(=O)N[C@H](C(=O)O)c4cc(O)cc(O)c4-c4cc3ccc4O)[C@H](O[C@H]3C[C@](C)(N)[C@@H](O)[C@H](C)O3)c3ccc(c(Cl)c3)Oc3cc2cc(c3O[C@@H]2O[C@H](CO)[C@@H](O)[C@H](O)[C@H]2O[C@H]2C[C@](C)(NCc3ccc(-c4ccc(Cl)cc4)cc3)[C@@H](O)[C@H](C)O2)Oc2ccc(cc2Cl)[C@H]1O [Oritavancin], the Bliss interaction score in experiment [2] was 0.031; in experiment [3], 0.0291; in experiment [4], 0.0454; in experiment [5] it was -0.0616.
Turning to `C[C@H]1COc2c(N3CCN(C)CC3)c(F)cc3c(=O)c(C(=O)O)cn1c23` [Levofloxacin] + CO[C@@]12[C@H](COC(N)=O)C3=C(C(=O)C(C)=C(N)C3=O)N1C[C@@H]1N[C@@H]12 [MitomycinC], the Bliss interaction score was 0.0422 in experiment [2], 0.0462 in experiment [3], 0.0429 in experiment [4] and -0.0941 in experiment [5].
The like results for `C[C@H]1COc2c(N3CCN(C)CC3)c(F)cc3c(=O)c(C(=O)O)cn1c23` [Levofloxacin] + Oc1cc(Cl)ccc1Oc1ccc(Cl)cc1Cl [Triclosan] were, in that order, 0.0373, -0.0551, -0.0181 and 0.054.
The like results for `CN(C)C(=O)C(CCN1CCC(O)(c2ccc(Cl)cc2)CC1)(c1ccccc1)c1ccccc1` [Loperamide] + CC1(C)S[C@@H]2[C@H](NC(=O)Cc3ccccc3)C(=O)N2[C@H]1C(=O)O [PenicillinG] were, in that order, 0.0464, -0.14, -0.068 and -0.249.
`CN(C)C(=O)C(CCN1CCC(O)(c2ccc(Cl)cc2)CC1)(c1ccccc1)c1ccccc1` [Loperamide] + CCCCCCCCCC(=O)N[C@@H]1[C@H]([C@@H]([C@H](O[C@H]1OC2=C3C=C4C=C2OC5=C(C=C(C=C5)[C@H]([C@H]6C(=O)N[C@@H](C7=C(C(=CC(=C7)O)OC8[C@H]([C@H]([C@@H]([C@H](O8)CO)O)O)O)C9=C(C=CC(=C9)[C@H](C(=O)N6)NC(=O)[C@@H]4NC(=O)[C@@H]1C2=CC(=CC(=C2)OC2=C(C=CC(=C2)[C@H](C(=O)N[C@H](CC2=CC(=C(O3)C=C2)Cl)C(=O)N1)N)O)O)O)C(=O)O)O[C@H]1[C@@H]([C@H]([C@@H]([C@H](O1)CO)O)O)NC(=O)C)Cl)CO)O)O [Teicoplanin]: the Bliss interaction score is 0.0883 in experiment [2] (main component drawn), -0.114 in experiment [3] (main component drawn), -0.0955 in experiment [4] (main component drawn) and -0.0953 in experiment [5] (main component drawn).
For the compound `CN(C)C(=O)C(CCN1CCC(O)(c2ccc(Cl)cc2)CC1)(c1ccccc1)c1ccccc1` [Loperamide] + CC[C@H]1OC(=O)[C@H](C)C(=O)[C@H](C)[C@@H](O[C@@H]2O[C@H](C)C[C@H](N(C)C)[C@H]2O)[C@](C)(OC)C[C@@H](C)C(=O)[C@H](C)[C@H]2N(CCCCn3cnc(-c4cccnc4)c3)C(=O)O[C@]12C [Telithromycin], the Bliss interaction score in experiment [2] was 0.0814; in experiment [3], 0.0619; in experiment [4] it was -0.024; in experiment [5], 0.0977.
For `CN(C)C(=O)C(CCN1CCC(O)(c2ccc(Cl)cc2)CC1)(c1ccccc1)c1ccccc1` [Loperamide] + CN[C@H](CC(C)C)C(=O)N[C@H]1C(=O)N[C@@H](CC(N)=O)C(=O)N[C@H]2C(=O)N[C@H]3C(=O)N[C@H](C(=O)N[C@H](C(=O)O)c4cc(O)cc(O)c4-c4cc3ccc4O)[C@H](O[C@H]3C[C@](C)(N)[C@@H](O)[C@H](C)O3)c3ccc(c(Cl)c3)Oc3cc2cc(c3O[C@@H]2O[C@H](CO)[C@@H](O)[C@H](O)[C@H]2O[C@H]2C[C@](C)(NCc3ccc(-c4ccc(Cl)cc4)cc3)[C@@H](O)[C@H](C)O2)Oc2ccc(cc2Cl)[C@H]1O [Oritavancin], the Bliss interaction score in experiment [2] is 0.0335; in experiment [3], -0.11; in experiment [4], -0.062; in experiment [5], -0.0409.
With `CN(C)C(=O)C(CCN1CCC(O)(c2ccc(Cl)cc2)CC1)(c1ccccc1)c1ccccc1` [Loperamide] + CO[C@@]12[C@H](COC(N)=O)C3=C(C(=O)C(C)=C(N)C3=O)N1C[C@@H]1N[C@@H]12 [MitomycinC], the Bliss interaction score in experiment [2] is 0.0277; in experiment [3] it was 0.101; in experiment [4], -0.031; in experiment [5], 0.105.
For `CN(C)C(=O)C(CCN1CCC(O)(c2ccc(Cl)cc2)CC1)(c1ccccc1)c1ccccc1` [Loperamide] + Oc1cc(Cl)ccc1Oc1ccc(Cl)cc1Cl [Triclosan] the same measures were 0.0255, -0.0746, 0.0213 and -0.179.
For `CCN(CC)CCOC(=O)c1ccc(N)cc1` [Procaine] + C/C(=C\C(=O)OCCCCCCCCC(=O)O)C[C@@H]1OC[C@H](C[C@@H]2O[C@H]2[C@@H](C)[C@H](C)O)[C@@H](O)[C@H]1O [Pseudomonic acid] the same measures were 0.0611, 0.0122, 0.0207 and -0.0844.
Consider `CCN(CC)CCOC(=O)c1ccc(N)cc1` [Procaine] + CC[C@H]1OC(=O)[C@H](C)C(=O)[C@H](C)[C@@H](O[C@@H]2O[C@H](C)C[C@H](N(C)C)[C@H]2O)[C@](C)(OC)C[C@@H](C)C(=O)[C@H](C)[C@H]2N(CCCCn3cnc(-c4cccnc4)c3)C(=O)O[C@]12C [Telithromycin], for which the Bliss interaction score in experiment [2] is -0.0224; in experiment [3], -0.0287; in experiment [4], 0.0289; in experiment [5], 0.0708.
Turning to `CCN(CC)CCOC(=O)c1ccc(N)cc1` [Procaine] + Oc1cc(Cl)ccc1Oc1ccc(Cl)cc1Cl [Triclosan], the Bliss interaction score in experiment [2] is 0.0507; in experiment [3], 0.0864; in experiment [4], -0.0125; in experiment [5], -0.0644.
Turning to `Cn1nnc(-c2ccc(-c3ccc(N4C[C@H](CO)OC4=O)cc3F)cn2)n1` [Tedizolid] + CCCCCCCCCC(=O)N[C@@H]1[C@H]([C@@H]([C@H](O[C@H]1OC2=C3C=C4C=C2OC5=C(C=C(C=C5)[C@H]([C@H]6C(=O)N[C@@H](C7=C(C(=CC(=C7)O)OC8[C@H]([C@H]([C@@H]([C@H](O8)CO)O)O)O)C9=C(C=CC(=C9)[C@H](C(=O)N6)NC(=O)[C@@H]4NC(=O)[C@@H]1C2=CC(=CC(=C2)OC2=C(C=CC(=C2)[C@H](C(=O)N[C@H](CC2=CC(=C(O3)C=C2)Cl)C(=O)N1)N)O)O)O)C(=O)O)O[C@H]1[C@@H]([C@H]([C@@H]([C@H](O1)CO)O)O)NC(=O)C)Cl)CO)O)O [Teicoplanin], the Bliss interaction score is 0.065 in experiment [2] (main component drawn), -0.083 in experiment [3] (main component drawn), 0.0811 in experiment [4] (main component drawn) and 0.295 in experiment [5] (main component drawn).
Consider `Cn1nnc(-c2ccc(-c3ccc(N4C[C@H](CO)OC4=O)cc3F)cn2)n1` [Tedizolid] + CC[C@H]1OC(=O)[C@H](C)C(=O)[C@H](C)[C@@H](O[C@@H]2O[C@H](C)C[C@H](N(C)C)[C@H]2O)[C@](C)(OC)C[C@@H](C)C(=O)[C@H](C)[C@H]2N(CCCCn3cnc(-c4cccnc4)c3)C(=O)O[C@]12C [Telithromycin], for which the Bliss interaction score in experiment [2] is -0.0463; in experiment [3] it was -0.0684; in experiment [4], -0.0897; in experiment [5] it was -0.0527.
Regarding `Cn1nnc(-c2ccc(-c3ccc(N4C[C@H](CO)OC4=O)cc3F)cn2)n1` [Tedizolid] + CN(C)c1cc(NC(=O)CNC(C)(C)C)c(O)c2c1C[C@H]1C[C@H]3[C@H](N(C)C)C(O)=C(C(N)=O)C(=O)[C@@]3(O)C(O)=C1C2=O [Tigecycline], the Bliss interaction score is -0.0434 in experiment [2], -0.107 in experiment [3], 0.0453 in experiment [4] and -0.0764 in experiment [5].
Turning to `Cn1nnc(-c2ccc(-c3ccc(N4C[C@H](CO)OC4=O)cc3F)cn2)n1` [Tedizolid] + COc1cc(Cc2cnc(N)nc2N)cc(OC)c1OC [Trimethoprim], the Bliss interaction score is 0.0776 in experiment [2], 0.215 in experiment [3], 0.136 in experiment [4] and -0.0785 in experiment [5].
The like results for `Cn1nnc(-c2ccc(-c3ccc(N4C[C@H](CO)OC4=O)cc3F)cn2)n1` [Tedizolid] + Oc1cc(Cl)ccc1Oc1ccc(Cl)cc1Cl [Triclosan] were, in that order, 0.0378, -0.153, 0.037 and -0.075.
